Assay: molar heat capacity at constant pressure; xn = mol fraction of the nth substance listed
Conditions: 100 kPa, Liquid, Small sample (50 mg) DSC

O=C(CO)[C@@H](O)[C@H](O)[C@H](O)CO [D-fructose] + C[N+](C)(C)CCO.[Cl-]
x2 = 0.67
Conditions | molar heat capacity at constant pressure [J/K/mol]
298.15 K | 311.5
300.65 K | 313.8
303.15 K | 316.7
305.65 K | 319.4
308.15 K | 322
310.65 K | 324.2
313.15 K | 326.2
315.65 K | 328.3
318.15 K | 330.5
320.65 K | 332.6
323.15 K | 334.1
325.65 K | 334.9
328.15 K | 335.8
330.65 K | 336.1
333.15 K | 335.8
335.65 K | 335.7
338.15 K | 335.2
340.65 K | 334.7
343.15 K | 335.2
345.65 K | 335.8
348.15 K | 336.6
350.65 K | 337.7
353.15 K | 340.1

OCCOCCOCCO [triethylene glycol] + C[N+](C)(C)CCO.[Cl-]
x2 = 0.33
Conditions | molar heat capacity at constant pressure [J/K/mol]
298.15 K | 299
300.65 K | 300.3
303.15 K | 301.5
305.65 K | 302.8
308.15 K | 303.7
310.65 K | 304.5
313.15 K | 304.7
315.65 K | 304.6
318.15 K | 304.6
320.65 K | 304.3
323.15 K | 304.3
325.65 K | 304.9
328.15 K | 305.8
330.65 K | 306.7
333.15 K | 307.4
335.65 K | 308.6
338.15 K | 309.4
340.65 K | 309.9
343.15 K | 310
345.65 K | 311.8
348.15 K | 312.2
350.65 K | 312.4
353.15 K | 314.6

O=C(O)CC(=O)O [propanedioic acid] + CCCC[N+](CCCC)(CCCC)CCCC.[Cl-]
x2 = 0.25
Conditions | molar heat capacity at constant pressure [J/K/mol]
298.2 K | 299.8
300.7 K | 302.6
303.2 K | 305.7
305.7 K | 309.4
308.2 K | 313.3
310.7 K | 316.9
313.2 K | 320.6
315.7 K | 323.7
318.2 K | 324.9
320.7 K | 328.8
323.2 K | 333.3
325.7 K | 335.9
328.2 K | 337.5
330.7 K | 339.2
333.2 K | 339.5
335.7 K | 340
338.2 K | 340.2
340.7 K | 340.6
343.2 K | 341.1
345.7 K | 341.2
348.2 K | 341.7
350.7 K | 342
353.2 K | 342.8

CCCC[N+](CCCC)(CCCC)CCCC.[Cl-] [tetrabutylammonium chloride] + OCC(O)CO
x1 = 0.17
Conditions | molar heat capacity at constant pressure [J/K/mol]
298.2 K | 281.2
300.7 K | 282.5
303.2 K | 283.9
305.7 K | 285.4
308.2 K | 286.9
310.7 K | 288.1
313.2 K | 289.4
315.7 K | 290.7
318.2 K | 292
320.7 K | 293.4
323.2 K | 294.5
325.7 K | 296.1
328.2 K | 297.4
330.7 K | 298.9
333.2 K | 300.4
335.7 K | 301.9
338.2 K | 303.2
340.7 K | 304.6
343.2 K | 305.7
345.7 K | 306.9
348.2 K | 307.8
350.7 K | 308.6
353.2 K | 310.9

C[N+](C)(C)CCO.[Cl-] [choline chloride] + O=C[C@H](O)[C@@H](O)[C@H](O)[C@H](O)CO
x1 = 0.67
Conditions | molar heat capacity at constant pressure [J/K/mol]
298.15 K | 327.5
300.65 K | 329.1
303.15 K | 330.7
305.65 K | 332.4
308.15 K | 334.5
310.65 K | 336.7
313.15 K | 338.6
315.65 K | 340.6
318.15 K | 342.5
320.65 K | 344.5
323.15 K | 346
325.65 K | 347.2
328.15 K | 348.4
330.65 K | 349.5
333.15 K | 350.6
335.65 K | 350.9
338.15 K | 351.4
340.65 K | 352
343.15 K | 352.6
345.65 K | 353.8
348.15 K | 354.2
350.65 K | 354.4
353.15 K | 356.3
